Measured values from ChEMBL document CHEMBL4364280 (Eur J Med Chem, 2019).
The source made the active and inactive calls. The calls are words filed in the database; no cut-off is given here.

Tests used:
[1] = biological target: T1, 5-hydroxytryptamine receptor 6 (Homo sapiens, UniProt P50406); assay: Agonist activity at recombinant human 5HT6 receptor expressed in CHOK1 cells co-expressing Galpha16/aequorin assessed as increase in calcium mobilization and measured for 60 secs in presence of coelenterazine by luminescence assay relative to control; type: functional, cell-based
[2] = biological target: T1, 5-hydroxytryptamine receptor 6; assay: Displacement of [3H]-LSD from human 5-HT6R expressed in human HEK293 cells incubated for 1 hr by radioligand binding assay; type: cell-based
[3] = biological target: T1, 5-hydroxytryptamine receptor 6; assay: Antagonist activity at recombinant human 5HT6 receptor expressed in CHOK1 cells co-expressing Galpha16/aequorin assessed as reduction in serotonin-induced calcium mobilization flux preincubated for 30 mins followed by serotonin addition in presence of coelenterazine h by luminescence assay; type: functional, cell-based
Rattus norvegicus [4] = assay: Antidepressant activity in Wistar rat assessed as reduction in immobility at 0.3 to 3 mg/kg, ip measured after 60 mins by forced swim test; type: functional; design: scale not given: the % may be the effect or the level left
Rattus norvegicus [5] = assay: Antidepressant activity in Wistar rat assessed as reduction in immobility at 0.1 mg/kg, ip measured after 60 mins by forced swim test; type: functional, organism-based
Rattus norvegicus [6] = assay: Antidepressant-like activity in Wistar rat assessed as total distance moved at 0.3 mg/kg, ip pretreated for 60 mins and measured for 5 mins by open field test (reference value: 2165 +/- 119 cm); type: functional
Rattus norvegicus [7] = assay: Antidepressant activity in Wistar rat assessed as ambulation-X movement moved at 0.3 mg/kg, ip pretreated for 60 mins and measured for 5 mins by open field test (reference value: 190 +/- 12); type: functional
Rattus norvegicus [8] = assay: Antidepressant activity in Wistar rat assessed as ambulation-Y movement moved at 0.3 mg/kg, ip pretreated for 60 mins and measured for 5 mins by open field test (reference value: 187 +/- 15); type: functional
Rattus norvegicus [9] = assay: Antidepressant activity in Wistar rat assessed as rear movement moved at 0.3 mg/kg, ip pretreated for 60 mins and measured for 5 mins by open field test (reference value: 57 +/- 6); type: functional
SH-SY5Y = assay: Cytotoxicity against human SH-SY5Y cells assessed as decrease in cell viability at 100 uM incubated for 72 hrs by MTS assay; type: cell-based
[10] = Mutagenicity in Salmonella typhimurium TA100 assessed as fold increase over MCB at 1 uM preincubated for 90 mins and measured after 72 hrs by Ames test; type: toxicity; conditions: salmonella enterica subsp. enterica serovar typhimurium
[11] = Mutagenicity in Salmonella typhimurium TA100 assessed as fold increase over MCB at 10 uM preincubated for 90 mins and measured after 72 hrs by Ames test; type: toxicity; conditions: salmonella enterica subsp. enterica serovar typhimurium
[12] = Mutagenicity in Salmonella typhimurium TA100 assessed as increase in revertant colonies at 1 uM preincubated for 90 mins and measured after 72 hrs by Ames test; type: toxicity; conditions: salmonella enterica subsp. enterica serovar typhimurium
[13] = Mutagenicity in Salmonella typhimurium TA100 assessed as increase in revertant colonies at 10 uM preincubated for 90 mins and measured after 72 hrs by Ames test; type: toxicity; conditions: salmonella enterica subsp. enterica serovar typhimurium
[14] = Selectivity ratio of CC50 for cytotoxicity against human SH-SY5Y cells to ratio of Ki for human 5-HT6R expressed in human HEK293 cells
[15] = Ratio of test compound CC50 to doxorubicin CC50 for cytotoxicity against human SH-SY5Y cells incubated for 72 hrs by MTS assay; type: cell-based
D(2) dopamine receptor = D(2) dopamine receptor (Homo sapiens, UniProt P14416); assay: Displacement of [3H]-raclopride from human D2L receptor expressed in human HEK293 cells incubated for 1 hr by radioligand binding assay; type: cell-based
[16] = biological target: T2, 5-hydroxytryptamine receptor 1A (Homo sapiens, UniProt P08908); assay: Displacement of [3H]-8-OH-DPAT from human 5-HT1A expressed in human HEK293 cells assessed as inhibitory constant incubated for 1 hr by radioligand binding assay; type: cell-based
T2 sequence (P08908 whole entry): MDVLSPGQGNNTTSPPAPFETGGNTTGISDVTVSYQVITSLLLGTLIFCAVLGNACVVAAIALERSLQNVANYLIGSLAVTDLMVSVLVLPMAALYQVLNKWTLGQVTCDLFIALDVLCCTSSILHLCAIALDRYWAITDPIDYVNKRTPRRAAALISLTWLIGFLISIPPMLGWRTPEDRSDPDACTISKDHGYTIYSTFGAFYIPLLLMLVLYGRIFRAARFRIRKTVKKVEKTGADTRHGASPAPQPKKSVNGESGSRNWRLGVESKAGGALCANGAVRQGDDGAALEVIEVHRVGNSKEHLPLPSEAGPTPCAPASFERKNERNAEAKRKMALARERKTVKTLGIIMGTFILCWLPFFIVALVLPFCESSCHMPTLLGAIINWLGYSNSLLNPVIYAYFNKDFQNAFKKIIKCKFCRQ

[17] = biological target: 5-hydroxytryptamine receptor 2A (Homo sapiens, UniProt P28223); assay: Displacement of [3H]-Ketanserin from human 5-HT2A expressed in CHO-K1 cells incubated for […] by radioligand binding assay; type: cell-based
[18] = biological target: 5-hydroxytryptamine receptor 7 (Homo sapiens, UniProt P34969); assay: Displacement of [3H]-5-CT from human 5-HT7R expressed in human HEK293 cells assessed as inhibitory constant incubated for 1 hr by radioligand binding assay; type: cell-based
Rattus norvegicus [19] = assay: Antidepressant activity in Wistar rat assessed as reduction in immobility at 10 mg/kg, ip measured after 30 mins by forced swim test; type: functional, organism-based
Rattus norvegicus [20] = assay: Antidepressant activity in Wistar rat assessed as reduction in immobility at 0.1 to 1 mg/kg, ip measured after 60 mins by forced swim test; type: functional, organism-based
Rattus norvegicus [21] = assay: Antidepressant activity in Wistar rat assessed as reduction in immobility at 1 mg/kg, ip measured after 60 mins by forced swim test; type: functional; design: scale not given: the % may be the effect or the level left
Rattus norvegicus [22] = assay: Antidepressant activity in Wistar rat assessed as total distance moved at 1 mg/kg, ip pretreated for 60 mins and measured for 5 mins by open field test (reference value: 929 +/- 36 cm); type: functional
Rattus norvegicus [23] = assay: Antidepressant activity in Wistar rat assessed as ambulation-X movement moved at 1 mg/kg, ip pretreated for 60 mins and measured for 5 mins by open field test (reference value: 213 +/- 13); type: functional
Rattus norvegicus [24] = assay: Antidepressant activity in Wistar rat assessed as ambulation-Y movement moved at 1 mg/kg, ip pretreated for 60 mins and measured for 5 mins by open field test (reference value: 187 +/- 14); type: functional
Rattus norvegicus [25] = assay: Antidepressant activity in Wistar rat assessed as rear movement moved at 1 mg/kg, ip pretreated for 60 mins and measured for 5 mins by open field test (reference value: 68 +/- 7); type: functional

Sequence of D(2) dopamine receptor (P14416 whole entry): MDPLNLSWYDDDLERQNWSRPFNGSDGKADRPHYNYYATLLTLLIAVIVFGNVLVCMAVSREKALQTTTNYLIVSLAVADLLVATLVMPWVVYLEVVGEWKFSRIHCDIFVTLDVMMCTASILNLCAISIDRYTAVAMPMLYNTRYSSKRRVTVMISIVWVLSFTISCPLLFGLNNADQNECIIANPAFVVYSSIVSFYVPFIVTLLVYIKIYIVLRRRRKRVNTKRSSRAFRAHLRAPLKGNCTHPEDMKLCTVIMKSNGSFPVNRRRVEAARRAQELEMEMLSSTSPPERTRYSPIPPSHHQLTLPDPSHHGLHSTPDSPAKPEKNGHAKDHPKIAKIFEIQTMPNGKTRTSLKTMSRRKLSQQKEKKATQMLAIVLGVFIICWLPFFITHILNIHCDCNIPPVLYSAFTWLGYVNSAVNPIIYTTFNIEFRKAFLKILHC
Sequence of 5-hydroxytryptamine receptor 2A (P28223 whole entry): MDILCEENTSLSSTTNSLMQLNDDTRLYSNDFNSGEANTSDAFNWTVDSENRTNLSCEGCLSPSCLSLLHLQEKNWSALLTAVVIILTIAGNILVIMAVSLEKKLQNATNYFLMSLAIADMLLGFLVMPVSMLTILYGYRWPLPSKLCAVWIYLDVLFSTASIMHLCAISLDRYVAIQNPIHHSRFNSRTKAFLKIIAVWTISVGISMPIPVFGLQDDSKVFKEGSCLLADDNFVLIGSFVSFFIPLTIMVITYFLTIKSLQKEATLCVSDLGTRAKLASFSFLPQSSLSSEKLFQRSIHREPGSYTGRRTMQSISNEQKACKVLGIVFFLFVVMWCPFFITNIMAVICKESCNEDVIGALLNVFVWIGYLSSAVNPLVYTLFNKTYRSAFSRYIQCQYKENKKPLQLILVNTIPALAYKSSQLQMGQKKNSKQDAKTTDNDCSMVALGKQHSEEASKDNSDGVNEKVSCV
T1 sequence (P50406 whole entry): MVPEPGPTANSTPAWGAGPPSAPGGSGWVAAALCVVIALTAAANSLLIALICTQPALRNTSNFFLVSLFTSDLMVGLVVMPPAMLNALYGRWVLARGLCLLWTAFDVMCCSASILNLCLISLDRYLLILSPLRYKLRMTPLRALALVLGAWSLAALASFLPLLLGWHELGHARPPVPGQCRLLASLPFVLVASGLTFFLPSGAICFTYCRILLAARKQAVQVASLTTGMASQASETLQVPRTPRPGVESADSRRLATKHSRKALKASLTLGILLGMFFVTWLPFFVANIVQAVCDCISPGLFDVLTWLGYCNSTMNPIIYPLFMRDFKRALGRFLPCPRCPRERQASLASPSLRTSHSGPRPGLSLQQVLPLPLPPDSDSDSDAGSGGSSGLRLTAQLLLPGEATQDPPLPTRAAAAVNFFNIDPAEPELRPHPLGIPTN
Sequence of 5-hydroxytryptamine receptor 7 (P34969 whole entry): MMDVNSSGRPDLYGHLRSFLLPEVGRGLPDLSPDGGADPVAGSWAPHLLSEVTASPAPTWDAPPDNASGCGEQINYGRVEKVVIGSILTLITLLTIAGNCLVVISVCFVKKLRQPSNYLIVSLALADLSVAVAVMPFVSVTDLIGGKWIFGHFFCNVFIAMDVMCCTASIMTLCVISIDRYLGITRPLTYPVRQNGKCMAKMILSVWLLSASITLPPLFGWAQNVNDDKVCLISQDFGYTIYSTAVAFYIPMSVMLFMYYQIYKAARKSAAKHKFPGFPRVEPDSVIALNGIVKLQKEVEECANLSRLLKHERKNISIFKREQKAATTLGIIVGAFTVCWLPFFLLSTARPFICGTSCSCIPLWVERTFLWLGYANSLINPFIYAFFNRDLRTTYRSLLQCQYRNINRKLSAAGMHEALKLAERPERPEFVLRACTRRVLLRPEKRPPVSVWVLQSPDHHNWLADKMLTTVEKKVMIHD

| Structure (SMILES) | Ki [2] [µM] | Ki (D(2) dopamine receptor) [µM] | Ki [16] [µM] | Ki [17] [µM] | Ki [18] [µM] | also measured |
| --- | --- | --- | --- | --- | --- | --- |
| Cc1ccc(C(C)C)c(OCc2nc(N)nc(N3CCN(C)CC3)n2)c1 | 0.011 | – | – | – | – | Emax [1]: 1%; Kb [3]: 0.0046 µM; Activity (Rattus norvegicus [4]): 20%; Activity (Rattus norvegicus [5]): inactive; Activity (Rattus norvegicus [6]): 2833 cm; Activity (Rattus norvegicus [7]): 307; Activity (Rattus norvegicus [8]): 290; Activity (Rattus norvegicus [9]): 56; Activity (SH-SY5Y): Toxic; fold change (FC) [10]: 0.55; fold change (FC) [11]: 0.47; Activity [12]: 4.67; Activity [13]: 4; Selectivity ratio [14]: >4000; selectivity ratio at 72 h [15]: 100 |
| CC([Se]c1ccccc1)c1nc(N)nc(N2CCN(C)CC2)n1 (stereo not drawn) | – | 0.656 | – | – | – | – |
| Cc1cc(OCc2nc(N)nc(N3CCN(C)CC3)n2)ccc1Cl | 0.355 | 1.22 | 3.58 | 0.197 | 5.84 | – |
| CN1CCN2c3ccccc3Cc3ccccc3C2C1 (stereo not drawn) | – | – | – | – | – | Emax [1]: 1% |
| COc1ccc(S(=O)(=O)Nc2cc(Cl)cc(Cl)c2OC)cc1N1CCNCC1 | – | – | – | – | – | Activity (Rattus norvegicus [19]): Active |
| CN1CCN(c2nc(N)nc(COc3cccc(Cl)c3)n2)CC1 | 0.148 | 0.674 | 7.5 | – | 5.82 | – |
| CC(Sc1ccccc1Cl)c1nc(N)nc(N2CCN(C)CC2)n1 (stereo not drawn) | 0.019 | 0.52 | 3.38 | 0.407 | 4.57 | Emax [1]: 1%; Kb [3]: 0.0029 µM; Activity (Rattus norvegicus [20]): inactive; Activity (SH-SY5Y): Toxic; fold change (FC) [10]: 0.94; fold change (FC) [11]: 0.76; Activity [12]: 10.33; Activity [13]: 8.33; Selectivity ratio [14]: >4000; selectivity ratio at 72 h [15]: 100 |
| CC(Oc1cccc(Cl)c1)c1nc(N)nc(N2CCN(C)CC2)n1 (stereo not drawn) | 0.118 | 0.566 | 3.44 | 0.59 | 8.36 | – |
| CC(Oc1ccccc1Cl)c1nc(N)nc(N2CCN(C)CC2)n1 (stereo not drawn) | 0.023 | 1 | 4.54 | 1.83 | 38.7 | Emax [1]: 1%; Kb [3]: 0.003 µM; Activity (Rattus norvegicus [21]): 22%; Activity (Rattus norvegicus [22]): 1005 cm; Activity (Rattus norvegicus [23]): 269; Activity (Rattus norvegicus [24]): 227; Activity (Rattus norvegicus [25]): 46; Activity (SH-SY5Y): Toxic; fold change (FC) [10]: 0.73; fold change (FC) [11]: 1; Activity [12]: 8; Activity [13]: 11; Selectivity ratio [14]: >4000; selectivity ratio at 72 h [15]: 100 |
| CN1CCN(c2nc(N)nc(COc3ccc(Cl)cc3Cl)n2)CC1 | 0.128 | 1.23 | 1.61 | – | 3.8 | – |
| Cc1cc(Cl)ccc1OCc1nc(N)nc(N2CCN(C)CC2)n1 | 0.911 | 4.37 | 7.69 | – | 15.2 | – |
| CN1CCN(c2nc(N)nc(CSc3ccccc3)n2)CC1 | 0.026 | 0.734 | 4.39 | 0.197 | 2.87 | – |
| CN1CCN(c2nc(N)nc(C[Se]c3ccccc3)n2)CC1 | – | 0.506 | – | – | – | – |
| O=S(=O)(c1ccccc1)c1cnc2c(N3CCNCC3)cccc2c1 | – | – | – | – | – | Emax [1]: 2% |
| Cc1cccc(OCc2nc(N)nc(N3CCN(C)CC3)n2)c1 | 0.207 | 0.74 | 15.1 | 2.27 | 10.7 | – |
| CN1CCN(c2nc(N)nc(CSc3ccccc3Cl)n2)CC1 | 0.126 | 0.329 | 1.68 | – | 0.614 | – |
| CN1CCN(c2nc(N)nc(COc3ccccc3Cl)n2)CC1 | 0.129 | 2.36 | 5.47 | – | 9.25 | – |
| Cc1ccc(OCc2nc(N)nc(N3CCN(C)CC3)n2)cc1 | 0.235 | 2.92 | 28.5 | – | 16.1 | – |
| CN1CCN(c2nc(N)nc(CS(=O)(=O)c3ccccc3Cl)n2)CC1 | 3.57 | 50.1 | > 1000 | 11.6 | 98.4 | – |
| Cc1ccccc1OCc1nc(N)nc(N2CCN(C)CC2)n1 | 0.087 | 4.25 | 14.2 | 17.2 | 0.514 | – |
| CN1CCN(c2nc(N)nc(COc3ccccc3)n2)CC1 | – | 1.35 | 8.73 | 2.63 | 9.53 | – |
